Source: US6380165B1, “Immunological advanced glycation endproduct crosslink” (The Picower Institute for Medical Research, priority 1997, dated 2002)
Where a SMILES comes first, the peptide text is derived from it. The star is where a group is joined. Cbz = O=C(OCc1ccccc1)*

Columns and labels:
[1] = tested on: polyclonal anti-AGE antibody “RU”; assay: anti-AGE antibody-based competitive ELISA to measure AGE content (AGE-BSA as absorbed antigen); type: binding, rabbit; settings: FIG. 1
From the text: For comparison purposes, the reactivity of FFI, CML, AFGP, pentosidine and cyclic pentosidine, and ligands with related epitope structure, such as N^α-Z-arg-lys, N^α-Z-arg-lys-AP, an imidazolium adduct, a pyrimidinium adduct, histidine, and lys-his, were studied. ELISA competition curves for the polyclonal anti-AGE antibody “RU” followed the methods described by Makita et al. (J. Biol. Chem. 267:1992, 1992). Assays employed glucose-derived, AGE-BSA as the absorbed antigen. FFI: 4-furanyl-2-furoyl-1H-imidazole (Ponger et al,. Proc. Natl. Acad Sci. U.S.A. 81:2684, 1984), CML: carboxy-methyllysine (Ahmed et al., J. Biol. Chem. 261:4889, 1986), AFGP: 1-alkyl-2-formyl-3,4-diglycosylpyrrole (Farmar et al., J. Org. Chem. 53:2346, 1988), PY: pyrraline (Njoroge et al., Carbohydrate Res. 167:211, 1987), P: pentosidine (Sell and Monnier, J. Biol. Chem. 264:21597, 1989), CP: cyclic pentosidine (CP) (Al-Abed et al., Bioorg. Med. Chem. Lett. 5:2929, 1995), AL: N^α-Z-arg-lys (AL), ALAP: N^α-Z-arg-lys-AP, H: histidine, LH: lys-his, PA: pyrimidinium adduct (Al-Abed et al., Bioorg. Med. Chem. Lett. 6:1577, 1996), and IA: imldazolium adduct (Brinkmann et al., J. Chem. Soc. Perkin Trans.
This example illustrates the discovery and isolation of the AGE of formula I. The dipeptide N^α-Z-arg-lys was selected as a target, because a close association of the arginine and lysine residues provides a significant proximity effect that promotes crosslink formation. Moreover, a synthetic strategy employing an arg-lys dipeptide was used successfully in the past to isolate a cyclic pentosidine in a high yield (Beisswenger et al., Diabetes 44:824, 1995). N^α-Z-arg-lys (13 mmoles) was incubated together with 10 equivalents of glucose in 0.2 M phosphate buffer (pH 7.4) for five weeks at 37° C. At least 25 distinct reaction products were identified upon fractionation of this mixture by reverse-phase HPLC. Each fraction was isolated, concentrated, and analyzed for its reactivity with anti-AGE antibody by ELISA (Makita et al., J. Biol Chem. 267:1992, 1992). Briefly, HPLC fractions and purified compounds were analyzed by an AGE-specific ELISA following methods described previously (Makita et al., J. Biol. Chem. 267:1992, 1992). This ELISA employed a polyclonal anti-AGE antibody raised by hyperimmunization against a heavily AGE-crosslinked preparation of ribonuclease. Total IgG was prepared by protein-G affinity chromatography and the ribonuclease backbone specificities removed by immunoabsorption. For assaying AGE immunoreactivity, 96-well round bottom microtitre plates (EIA/RIA plate, Costar, Cambridge, Mass.) first were coated with AGE-BSA (3 mg/ml, dissolved in 0.1 M sodium bicarbonate, pH 9.6) by incubation overnight at 4° C. After washing, the unbound sites were blocked with SuperBlock™ following the manufacturer's recommendations (Pierce, Rockford, Ill.). After washing, dilutions of test antigen, together with anti-AGE IgG, were added and the plates incubated at room temperature for 1 hr. The plates then were washed again and incubated with a secondary antibody (alkaline phosphatase-conjugated anti-rabbit IgG) at 37° C. for 1 hr. The unbound antibodies were removed by extensive washing and bound antibodies were detected by incubation with-nitrophenyl phosphate (pNPP) substrate for 30-60 min, and recording the optical density at 405 nm by an ELISA reader (EL309, Bio-Tek Instruments Inc., Burlington, Vt.). Results were expressed as B/B0, calculated as [experimental OD—background OD (i.e. no antibody)]/[total OD (i.e. no competitor)—background OD].

[2] = acid lability of the isolated crosslink; type: physicochemical
[3] = tested on: AGE formation; assay: formation of the ALI crosslink from glucose and Nα-Z-arg-lys, inhibition of forming
From the text: This example illustrates a proposed mechanism of the AGE formation (FIG. 2). First, dehydration of the lysine-derived AP (which has been determined to form in 18% yield under these reaction conditions) gives an obligate, AP-dione reactive intermediate. Reversible addition of the guanidine moiety to the dicarbonyl yields the 2-amino-4,5-dihydroxyimidazole adduct, which then undergoes dehydration to deliver the stable cyclic ALI.

Compound: N=C(N)NCCC[C@H](NC(=O)OCc1ccccc1)C(=O)N[C@@H](CCCCN)C(=O)O [AL, N^α-Z-arg-lys] (Cbz-Arg-Lys-OH)
- crossreactivity / reactivity with the RU anti-AGE antibody [1]: no detectable crossreactivity

Compound: cyclic pentosidine [CP]
- crossreactivity / reactivity with the RU anti-AGE antibody [1]: no detectable crossreactivity

Compound: N^α-Z-arg-lys-AP [ALAP]
- crossreactivity / reactivity with the RU anti-AGE antibody [1]: no detectable crossreactivity

Compound: NCCCC[C@H](N)C(=O)N[C@@H](Cc1cnc[nH]1)C(=O)O [LH, lys-his]
- crossreactivity / reactivity with the RU anti-AGE antibody [1]: no detectable crossreactivity

Compound: 4-furanyl-2-furoyl-1H-imidazole [FFI]
- crossreactivity / reactivity with the RU anti-AGE antibody [1]: no detectable crossreactivity

Compound: pentosidine
- crossreactivity / reactivity with the RU anti-AGE antibody [1]: no detectable crossreactivity

Compound: N[C@@H](CCCCn1c(C=O)ccc1CO)C(=O)O [PY, pyrraline]
- crossreactivity / reactivity with the RU anti-AGE antibody [1]: no detectable crossreactivity

Compound: O=C(NC1CCCNC2=NC(=CNCCCCC(C(=O)O)NC1=O)C(CC(O)CO)=N2)OCc1ccccc1 (stereo not drawn) [ALI, Arg-Lys-Imidazole]
- acid stability of the crosslink [2]: acid-labile

Compound: 1-alkyl-2-formyl-3,4-diglycosylpyrrole [AFGP]
- crossreactivity / reactivity with the RU anti-AGE antibody [1]: no detectable crossreactivity

Compound: N[C@@H](Cc1c[nH]cn1)C(=O)O [H, histidine]
- crossreactivity / reactivity with the RU anti-AGE antibody [1]: no detectable crossreactivity

Compound: N=C(N)NN [aminoguanidine]
- inhibition of crosslink (ALI) formation [3]: inhibited from forming
